Values after ≈ are worked out from the molar mass of the structure shown. Ends that are not written are not given here. Peptide text beside a SMILES is read from it. * marks the point of attachment. For = O=C*
Columns and labels:
SspA protease = SspA protease (Staphylococcus aureus, UniProt P0C1U8); test: SspA protease treatment, LC/MS analysis; type: in vitro ADME; details: in vitro, 37° C., ˜5 hours
Protocol: SspA protease treatment. SspA protease was resuspended at 2 mg/mL in 100 mM HEPES, pH 7.8. Proteolysis was achieved by incubation of 50 μg PSMs at 37° C. for ˜5 hours with 0.2 mg/mL SspA. The antimicrobial activity of the proteolytic products were assayed by spotting a 5 μL (˜45 μg) from each treated peptide on each test microorganism as described above.
HPLC/MS analysis. High performance liquid chromatography coupled to mass spectrometry (HPLC-MS) was conducted to assess the proteolytic cleavage of synthetic PSMs by the SspA protease, as described above. Both treated samples and untreated controls were incubated at 37° C. for 5 hours, and then frozen until HPLC/MS analysis. An Agilent Infinity II 1260 HPLC outfitted with a Phenomenex Lune C5 column (4.6×150 mm, 5 μm) was used to separate the peptide fragments using a binary solvent system consisting of solvent A (water, 0.05% formic acid) and solvent B (acetonitrile, 0.05% formic acid) operating at 0.7 mL/min. A 5 μl volume (˜4.5 μg) of each sample was injected at 10% solvent B, followed by a two-step gradient elution from 10 to 50% solvent B in 30 minutes, then 50 to 100% B in 10 minutes. The HPLC was coupled to an Advion CMS(L) single quadrupole mass detector through an electrospray ionization source. A line splitter from the HPLC to ESI source was used to deliver sample to the mass detector at 0.3 mL/min. An Advion expression-L CMS detector was used at low temperature and fragmentation settings: capillary temperature: 135° C., capillary voltage 120 V, source voltage offset 20 V, source gas temperature 135° C. and ESI voltage 3500 V. The range of ions detected was between 100 and 2,000 m/z.

[1] = test system: Candida duobushaemulonii AR 392; test: MIC, YPD broth, CDC and FDA AR Candida isolate panel; type: cell-based; details: Table 9 top part: titrations from 1.56 to 100 μg/mL
Procedure, shortened: (§1)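 Each isolate was diluted to an optical density of […] and combined with peptide at twofold stepwise concentrations. Plates then sat unshaken overnight at 37° C. Sterile water replaced peptide in control wells.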

Kodamae ohmeri AR 396 = test: as above; type: cell-based; details: Table 9 top part: titrations from 1.56 to 100 μg/mL
Procedure, shortened: as §1

C. albicans MYA-2876 = test: MIC, YPD broth; type: cell-based, Candida albicans; details: Table 8
Procedure, shortened: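 Yeast cells were diluted in YPD broth, and 180 μl aliquots were mixed with 20 μl of peptide from 2-fold serial dilutions in flat-bottom 96-well microtitre plates. Wells receiving 20 μl sterile water served as controls. After standing incubation overnight at 37° C, the MIC was taken as the lowest peptide concentration with no visible microbial growth.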

[2] = test system: Mannheimia haemolytica ATCC 33393; test: MIC, broth dilution; type: cell-based; details: Table 11; highest concentration 25 μg/mL
Procedure, shortened: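 Read-out is the lowest peptide concentration showing no growth after an overnight standing culture at 37 °C. Two-fold serial dilutions of 95%-pure peptide were tested against M. haemolytica ATCC 33393 at OD 6×10^−4 in cation-adjusted MH broth.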

[3] = Circular dichroism spectroscopy; type: physicochemical; details: CD, 50% (v/v) TFE
Procedure, shortened: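 Secondary structure of peptides dissolved in water at 0.3–0.5 mg/mL was assessed by CD. Spectra were recorded from 180 to 260 nm at room temperature in a 0.1 cm quartz cuvette; water and 50% (v/v) TFE conditions were compared.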

HeLa cells = type: cell-based; details: 24 h, alamarBlue
Protocol: Peptide cytotoxicity. In vitro cytotoxicity was measured using the 3D EpiDerm skin tissues and HeLa Cells using a fluorescent reporter of cell viability, alamarBlue (ThermoFisher Scientific). 3D EpiDerm skin tissues (MatTek EPI-200-AFAB) were transferred to a 12 well plate containing 600 μL of AFAB-assay medium supplemented with 10% v/v alamarBlue. […] HeLa cells were seeded in a 96-well plate (2×10^4 cells/per well) and incubated overnight at 37° C. and 5% CO2 in a humidified incubator to prepare wells at ˜50% confluency of adherent cells. After the incubation, spent DMEM was removed and cells were washed with PBS. alamarBlue-containing medium was prepared by mixing Phenol Red-free DMEM with alamarBlue solution at a 9:1 ratio and a 180 μl volume was added to each well. Cells were treated with peptides varying from 3.25 to 200 μg/mL and then incubated for 24 h. The fluorescence intensities of treated cultures were normalized to values measured for an untreated control group. After the 24 h incubation period, alamarBlue fluorescence was measured at 590 nm upon excitation at 560 nm using Varioskan Lux plate reader (Thermo Scientific) plate reader.

[4] = test system: Saccharomyces cerevisiae AR 399; test: MIC, YPD broth, CDC and FDA AR Candida isolate panel; type: cell-based; details: Table 9 top part: titrations from 1.56 to 100 μg/mL
Procedure, shortened: as §1

Candida krusei AR 397 = test: as above; type: cell-based; details: Table 9 top part: titrations from 1.56 to 100 μg/mL
Procedure, shortened: as §1

[5] = test system: Candida lusitaniae AR 398; test: as above; type: cell-based; details: Table 9 top part: titrations from 1.56 to 100 μg/mL
Procedure, shortened: as §1

[6] = test system: Saccharomyces cerevisiae AR 400; test: as above; type: cell-based; details: Table 9 top part: titrations from 1.56 to 100 μg/mL
Procedure, shortened: as §1

M. luteus ATCC 4698 = test: MIC, broth dilution; type: cell-based, Micrococcus luteus; details: Table 4; liquid broth
Protocol: MIC determination. MICs were measured using peptides with 95% purity. For bacterial studies, cation-adjusted Mueller Hinton (MH) broth was used as the growth medium whereas Yeast Peptone Dextrose (YPD; 10 g/L yeast extract, 20 g/L peptone, 20 g/L dextrose) was used for Candida spp. and other yeast. Microorganisms were diluted to an optical density of […] in MH or YPD broth and a 180 μl volume was mixed with 20 μl of peptide arrayed as a 2-fold dilution series in a flat-bottom 96-well microtitre plate. A control was performed using 20 μl of sterile water. Plates were incubated as standing cultures overnight at 37° C.
Determination of minimum inhibitory concentrations. The MICs were measured for bioactive peptides identified from the initial screen. For bacterial studies, cation-adjusted Mueller Hinton (MH) broth was used as the growth medium whereas YPD was used for C. albicans. Bacterial cultures were diluted to a OD value of 6×10^−4 in MH broth and a 180 μl volume was mixed with 20 μl of peptide arrayed as 2-fold dilution series in a 96-well plate. For the positive control, 20 μl of sterile water was used. Plates were incubated as standing cultures overnight at 37° C. The lowest peptide concentration that resulted no observed microbial growth after an overnight treatment was defined as the MIC.

[7] = test system: S. aureus ATCC BAA-2313 (MRSA SCCmec type XI); test: MIC, broth dilution; type: cell-based, Staphylococcus aureus; details: Table 5; STIP3 variants, highest concentration 100 μg/mL
Procedure, shortened: (§2)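 Peptides (95% purity) were serially diluted 2-fold and mixed with bacteria diluted to OD 6×10^−4 in cation-adjusted Mueller Hinton broth. Standing cultures were incubated overnight at 37° C. MIC was the lowest peptide concentration with no observed growth.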

[8] = test system: S. aureus ATCC BAA-42 (MRSA SCCmec type VI); test: MIC, broth dilution; type: cell-based, Staphylococcus aureus; details: Table 5; STIP3 variants, highest concentration 100 μg/mL
Procedure, shortened: as §2

[9] = test system: S. aureus ATCC BAA-44 (MRSA SCCmec type I); test: MIC, broth dilution; type: cell-based, Staphylococcus aureus; details: Table 5; STIP3 variants, highest concentration 100 μg/mL
Procedure, shortened: as §2

[10] = test system: S. aureus ATCC BAA-2094 (MRSA SCCmec type V); test: MIC, broth dilution; type: cell-based, Staphylococcus aureus; details: Table 5; STIP3 variants, highest concentration 100 μg/mL
Procedure, shortened: as §2

[11] = test system: S. aureus ATCC BAA-41 (MRSA SCCmec type II); test: MIC, broth dilution; type: cell-based, Staphylococcus aureus; details: Table 5; STIP3 variants, highest concentration 100 μg/mL
Procedure, shortened: as §2

S. aureus ATCC 29213 = test: MIC, broth dilution; type: cell-based, Staphylococcus aureus
Procedure, shortened: as §2

[12] = test system: S. aureus ATCC 33592 (MRSA SCCmec type III); test: MIC, broth dilution; type: cell-based, Staphylococcus aureus; details: Table 5; STIP3 variants, highest concentration 100 μg/mL
Procedure, shortened: as §2

Chain of SspA protease (P0C1U8 69-336): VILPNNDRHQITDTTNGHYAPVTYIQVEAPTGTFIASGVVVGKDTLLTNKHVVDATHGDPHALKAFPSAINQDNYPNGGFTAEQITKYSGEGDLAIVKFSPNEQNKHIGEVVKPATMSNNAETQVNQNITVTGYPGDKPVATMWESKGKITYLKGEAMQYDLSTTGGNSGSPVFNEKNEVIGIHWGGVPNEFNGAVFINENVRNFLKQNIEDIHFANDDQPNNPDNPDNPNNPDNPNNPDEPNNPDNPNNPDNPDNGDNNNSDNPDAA

H-MTKDIVETVGGLVKWILDTVKKFA [δ-toxin (df), reference compound]
susceptibility to SspA cleavage (SspA protease): susceptible to SspA cleavage in vitro | MIC (μg/mL) Candida duobushaemulonii AR 392 [1]: > (MIC values reported at the top of the table (above the double line) are based on titrations from 1.56 to 100 μg/mL) | MIC (μg/mL) Kodamae ohmeri AR 396 (Kodamae ohmeri AR 396): > (MIC values reported at the top of the table (above the double line) are based on titrations from 1.56 to 100 μg/mL) | MIC C. albicans MYA-2876 (C. albicans MYA-2876): 100 µg/mL | MIC (μg/mL) M. haemolytica [2]: > (> symbol indicates that no inhibition was observed at the highest concentration of peptide tested: 25 μg/mL) | α helicity (%) [3]: 87%

TVGGLVKWILDTVKKFA [STIP3-1, TVGGLVKWILDTVKKFA]
susceptibility to SspA cleavage (SspA protease): cleave the bioactive peptide into an inactive mixture | IC50, HeLa cell survival (HeLa cells): 200 ± 30 µg/mL | MIC (μg/mL) Saccharomyces cerevisiae AR 399 [4]: 50 µg/mL | MIC (μg/mL) Candida krusei AR 397 (Candida krusei AR 397): 25 µg/mL | MIC (μg/mL) Candida lusitaniae AR 398 [5]: 100 µg/mL | MIC (μg/mL) Saccharomyces cerevisiae AR 400 [6]: 12.5 µg/mL | MIC C. albicans MYA-2876 (C. albicans MYA-2876): 25 µg/mL | MIC (μg/mL) M. luteus (M. luteus ATCC 4698): 12.5 µg/mL | MIC S. aureus ATCC BAA 2313 (XI) [7]: 100 µg/mL | MIC S. aureus ATCC BAA 42 (VI) [8]: 100 µg/mL | MIC S. aureus ATCC BAA 44 (I) [9]: 100 µg/mL | MIC S. aureus ATCC BAA 2094 (V) [10]: 100 µg/mL | MIC S. aureus ATCC BAA 41 (II) [11]: 100 µg/mL | MIC (μg/mL) S. aureus (S. aureus ATCC 29213; Table 4, liquid broth): 100 µg/mL | MIC S. aureus ATCC 29213 (S. aureus ATCC 29213; Table 5, STIP3 variants, highest concentration 100 μg/mL): 100 µg/mL | MIC S. aureus ATCC 33592 (III) [12]: 100 µg/mL

CC[C@H](C)[C@H](NC(=O)[C@H](Cc1c[nH]c2ccccc12)NC(=O)[C@H](CCCCN)NC(=O)[C@@H](NC(=O)[C@H](CC(C)C)NC(=O)CNC(=O)CNC(=O)[C@@H](NC(=O)[C@@H](NC(=O)[C@H](CCC(=O)O)NC(=O)[C@@H](NC(=O)[C@@H](NC(=O)[C@H](CC(=O)O)NC(=O)[C@H](CCCCN)NC(=O)[C@@H](NC(=O)[C@H](CCSC)NC=O)[C@@H](C)O)[C@@H](C)CC)C(C)C)[C@@H](C)O)C(C)C)C(C)C)C(=O)N[C@@H](CC(C)C)C(=O)N[C@@H](CC(=O)O)C(=O)N[C@H](C(=O)N[C@H](C(=O)N[C@@H](CCCCN)C(=O)N[C@@H](CCCCN)C(=O)N[C@@H](Cc1ccccc1)C(=O)N[C@@H](C)C(=O)O)C(C)C)[C@@H](C)O [δ-toxin, reference compound] (For-MTKDIVETVGGLVKWILDTVKKFA-OH)
susceptibility to SspA cleavage (SspA protease): formylation protected against proteolysis | IC50, HeLa cell survival (HeLa cells): 230 ± 30 µg/mL (≈ 84.6 µM) | MIC (μg/mL) Candida duobushaemulonii AR 392 [1]: > (MIC values reported at the top of the table (above the double line) are based on titrations from 1.56 to 100 μg/mL) | MIC (μg/mL) Kodamae ohmeri AR 396 (Kodamae ohmeri AR 396): > (MIC values reported at the top of the table (above the double line) are based on titrations from 1.56 to 100 μg/mL) | MIC C. albicans MYA-2876 (C. albicans MYA-2876): > (> symbol indicates that no inhibition was observed at the highest concentration of peptide tested: 100 μg/mL) | MIC (μg/mL) M. haemolytica [2]: > (> symbol indicates that no inhibition was observed at the highest concentration of peptide tested: 25 μg/mL) | α helicity (%) [3]: 88%
